The source of these data is US20240384311A1, “POLYHYDROXYALKANOATES AND METHODS OF MAKING THEREOF” (The Board of Trustees of the Leland Stanford Junior …, priority 2021, published 2024).

What all share (assay type): cell-based
For series [1], the system named is Cupriavidus necator H16 ΔphaC1 hadA-phaC1437. The settings on record: shake-flask, 30° C., determined from 20 mM down in steps of 5 mM until acceptable growth. As for the experimental part:
(§1) Liquid cultures under heterotrophic conditions were conducted in 500 mL vented, baffled shake-flasks (WHEATON® Erlenmeyer Flasks with DuoCap®. DWK Life Sciences), incubated with shaking at 180 rpm on an innova 2300 platform shaker (New Brunswick Scientific) at 30° C. For feeding experiments, precultures of the engineered C. necator strains were inoculated in liquid RB+kan (50 mL) from solid RB+kan and grown over-night. In the morning the medium was exchanged for MSM+kan, diluting the culture 1:2 (in 100 mL). In the afternoon the seed-culture was washed with MSM and again diluted 1:2 (in 200 mL) with MSM+kan+polymer-precursor and induced with arabinose (1 g/L, unless indicated otherwise) in the evening. OD was monitored accompanied by collection of supernatant samples.
(§2) In a PHA-negative knock-out mutant (ΔphaC1) of the type-strain ‘H16’, pct540 & phaC1437 and hadA & phaC1437 were expressed, respectively.
(§3) Toxicity limits of the respective hydroxy carbonic acids were determined outgoing from 20 mM down in steps of 5 mM until acceptable growth was obtained in shake-flask experiments at 30° C.
(§4) Cultivations conducted on minimal salt medium with 30 g/L fructose as carbon-source and 2 g/L ammonium chloride as nitrogen-source (limiting). Cultures were inoculated at an OD600 of ≈0.5-1.

Series [2] has as its system Cupriavidus necator H16 wild-type. Briefly: Shake-flask cultivation with externally supplied hydroxy carbonic acids (toxicity limit, growth), wild-type strain. The conditions noted are these: for final biomass: H16 wild-type cultivated with the hydroxyalkanoate at its listed concentration, 2 g/L ammonium chloride. The protocol: as §1, §2, §3, §4
Series [3] concerns Cupriavidus necator H16 ΔphaC1 pct540-phaC1437. The conditions noted are these: for Concentration (maximum non-toxic concentration of hydroxyalkanoate): H16 ΔphaC1 pct540-phaC1437, shake-flask, 30° C., determined from 20 mM down in steps of 5 mM until acceptable growth; for final biomass: H16 ΔphaC1 pct540-phaC1437 cultivated with the hydroxyalkanoate at its listed concentration, 30 g/L fructose, 2 g/L ammonium chloride. The protocol: as §1, §2, §3, §4

Setting [4] is: H16 wild-type, shake-flask, 30° C., determined from 20 mM down in steps of 5 mM until acceptable growth, MSM, 30 g/L fructose.

Read-outs that look alike come from different tables or passages of the source.

Regarding `O=C(O)C(O)CCc1ccccc1` (centres unmarked) [2-hydroxy-4-phenylbutanoic acid], the “Concentration (maximum non-toxic concentration of hydroxyalkanoate)” value in series [1] worked out at 15000 µM.

In the case of `O=C(O)CCO` [3-hydroxypropanoic acid], the final biomass in series [2] (30 g/L fructose) came out at 5.7 g/L; in series [3], 1.6 g/L. In addition, the “Concentration (maximum non-toxic concentration of hydroxyalkanoate)” value in series [2] (setting [4]), in series [1] and in series [3] was 20000 µM each time.

For the compound `O=C(O)CCCO` [4-hydroxybutanoic acid], the final biomass in series [2] (30 g/L fructose) was found to be 4.1 g/L; in series [3] it was 1.9 g/L. Further, the “Concentration (maximum non-toxic concentration of hydroxyalkanoate)” value in series [2] (setting [4]), in series [1] and in series [3] was 20000 µM each time.

Take `O=C(O)CCCCCO` [6-hydroxyhexanoic acid]: the final biomass in series [2] (30 g/L fructose) worked out at 3.5 g/L; in series [3], 1.5 g/L. Besides, the “Concentration (maximum non-toxic concentration of hydroxyalkanoate)” value in series [2] (setting [4]), in series [1] and in series [3] was “(<10 mM)” in each case.

In the case of `O=C(O)/C=C/c1ccc(O)c(O)c1` [caffeic acid], the “Concentration (maximum non-toxic concentration of hydroxyalkanoate)” value in series [1] is 5000 µM.

Consider `O=C(O)CO` [glycolic acid], for which the final biomass is recorded as 6.8 g/L in series [2] (30 g/L fructose) and 1.4 g/L in series [3].

Turning to `CC(O)C(=O)O` (centres unmarked) [lactic acid], the “Concentration (maximum non-toxic concentration of hydroxyalkanoate)” value in series [2] was determined as 20000 µM. Also, the final biomass in series [2] (30 g/L fructose) stood at 18.2 g/L; in series [3] it was 1.9 g/L.

Take `O=C(O)C(O)c1ccccc1` (centres unmarked) [mandelic acid]: the “Concentration (maximum non-toxic concentration of hydroxyalkanoate)” value in series [1] was 5000 µM.

For `O=C(O)/C=C/c1ccc(O)cc1` [para-coumaric acid], in series [1], the “Concentration (maximum non-toxic concentration of hydroxyalkanoate)” value is 5000 µM.

Consider `O=C(O)C(O)Cc1ccccc1` (centres unmarked) [phenyllactic acid], for which the “Concentration (maximum non-toxic concentration of hydroxyalkanoate)” value in series [1] is 10000 µM.

As to `O=C(O)CCc1ccc(O)cc1` [phloretic acid], the “Concentration (maximum non-toxic concentration of hydroxyalkanoate)” value in series [1] was determined as 5000 µM.
